Laboratory results as given in paper PMC10671052, “Naphthyl-Substituted Indole and Pyrrole Carboxylic Acids as Effective Antibiotic Potentiators—Inhibitors of Bacterial Cystathionine γ-Lyase” (International Journal of Molecular Sciences, 2023).
Values after ≈ are worked out from the molar mass of the structure shown. Read-outs that look alike come from different tables or passages of the source.

What was measured:
[1] = Metabolic stability in rat liver microsomes; conditions: for microsomal CLint at 1 µM / half-life at 1 µM: rat, microsomes; for microsomal CLint at 1 µM: pH 7.4, CLint; for half-life at 1 µM: pH 7.4, t1/2, rat liver microsomes
Experimental: The metabolic stability of a test compound was evaluated based on the rate of disappearance during incubation with rat liver microsomes. […] The natural logarithm of a peak area ratio (compound peak area/internal standard peak area) was plotted against incubation time, and the slope of the line was determined.

[2] = physchem; assay type: physicochemical; conditions: for solubility at 2 h: 25 °C, pH 7.4, aqueous buffer, kinetic from dmso stock
Experimental: A stock solution of a compound (10 mM in DMSO, 10 μL) was added to 990 μL of 100 mM sodium phosphate buffer (pH 7.4) and incubated at 25 °C for 2 h with constant shaking. The suspension was filtered through the PVDF membrane filter (Merck Millipore, Burlington, MA, USA). To 320 µL of the filtrate, 80 µL of acetonitrile was added and mixed. The mixture was transferred to a vial and analyzed by ultra-high-performance liquid chromatography (UHPLC) with UV detection. Concentrations were calculated from a 5-point calibration curve. The calibration range was 1 to 100 μM. The controls were diclofenac and nicardipine. All compounds were tested in triplicate.

[3] = in vitro; assay type: in vitro ADME; conditions: human, plasma
Experimental: Plasma protein binding was assessed using RED device inserts with built-in cellulose acetate dialysis membranes (molecular weight cutoff: 8 kDa). The final concentration of the test compound in human plasma was 5 μM. The samples were prepared by placing 300 μL of human plasma into the plasma compartment of the RED device and 500 μL of phosphate-buffered saline (pH 7.4) into the buffer compartment. The RED device was fixed to a shaker, placed in a CO2 (5%) incubator, and incubated for 6 h at 37 °C. After an equilibration step, 100 μL aliquots were taken from each compartment; 100 μL of plasma was added to the buffer compartment aliquot and 100 μL of buffer was added to the plasma compartment aliquot. After mixing, 600 μL of acetonitrile containing an internal standard was added. […] All compounds were tested in duplicate. Fraction bound fb was determined via the following equation: fb (%) = [1 − (Cb/Cp)] × 100, where Cb is the concentration of an analyte in the buffer compartment (μM), and Cp is the concentration of the analyte in the plasma compartment (μM).

[4] = Caco-2 cell permeability; assay type: in vitro ADME; conditions: human
Experimental: The culture medium consisted of high-glucose DMEM containing 10% of fetal bovine serum, 4 mM L-glutamine, 1% of a solution of nonessential amino acids (PanEco, Moscow, Russia), 100 U/mL penicillin, and 100 μg/mL streptomycin. The cells were maintained for 21 days at 37 °C and 5% CO2. The medium was refreshed every 3 days. A Lucifer yellow rejection assay was applied to determine cell monolayer integrity. […] The Lucifer yellow rejection value was calculated using the equation: LY % rejection = 100*(1−FIb/FIa), where FIb is the fluorescence in the basolateral compartment and FIa is the fluorescence in the apical compartment. […] Both apical-to-basolateral (AB) and basolateral-to-apical (BA) transport were assessed. For apical-to-basolateral transport, 0.3 mL of a test compound solution was added to the apical side, and 0.8 mL of HBSS with 0.5% of BSA was added to the basolateral side. For basolateral-to-apical transport, 0.8 mL of a test compound solution was added to the basolateral side and 0.3 mL of HBSS with 0.5% of BSA was added to the apical side. The Caco-2 cell monolayers were then incubated for 2 h at 37 °C. The pH values of the apical and basolateral compartments were 7.4. […] The supernatant was transferred to a vial and analyzed by liquid chromatography coupled with tandem MS (LC–MS/MS). The AB (or BA) apparent permeability coefficients (Papp, 10^–6 cm/s) were calculated according to the following formula [40, 41]: Papp = (V × ∆C)/(∆t × A × C0), where V is the volume of the receiver compartment (cm^3), C0 is the initial drug concentration in the donor compartment (μM), ∆C is the concentration in the receiver compartment (μM), ∆t is the incubation time (s), and A is the surface area of the cell monolayer (cm^2). An efflux ratio was calculated by dividing Papp (BA) by Papp (AB). All compounds were tested in duplicate.

[5] = test system: HEK293 cells; assay: HEK293 cytotoxicity assay (Alamar Blue); assay type: cell-based; conditions: HEK293, 72 h
Experimental: The HEK 293 cell line was obtained from the European Collection of Authenticated Cell Cultures (ECACC, cat. # 85120602, Salisbury, UK). The cells were grown in a monolayer culture in Dulbecco’s Modified Eagle’s Medium (DMEM) (PanEco, Moscow, Russia), supplemented with 2 mM L-glutamine, 1% of a penicillin/streptomycin solution (Capricorn Scientific, Ebsdorfergrund, Germany), and 10% of heat inactivated fetal bovine serum (HyClone, Cytiva, Marlborough, MA, USA) in a humidified atmosphere containing 5% of CO2 at 37 °C (Binder, Germany). For the assay, HEK 293 cells were seeded in a 96-well plate (Corning, NY, USA) in 100 μL of the complete culture medium, at a final density of 2 × 10^3 cells/well, and were cultured for 24 h for proper attachment. Subsequently, the medium was removed, and the cells were exposed to a tested inhibitor at different concentrations for 72 h in 100 μL of the fresh complete culture medium. The sensitivity of the cells to the compounds was detected using the vital dye Alamar Blue (Invitrogen, San Diego, CA, USA). The Alamar Blue assay was performed according to the procedure described by O’Brien et al.. After incubation with the tested bCSE inhibitors, 10 μL of the Alamar Blue reagent was added into each well, the cell culture plates were returned to the humidified incubator, and the fluorescence was read after 3 h. The plates were exposed to an excitation light of 545 nm wavelength, and emission at 600 nm was measured on the CLARIOstar Plus (BMG LABTECH GmbH, Ortenberg, Germany). To determine half-maximal cytotoxic concentration (CC50), a four-parameter sigmoidal curve model (GraphPad Prism 8 software) was fitted to the measurement data.

[6] = molecular target: T1, human cystathionine-γ-lyase (hCSE) (Homo sapiens, UniProt P32929); assay: IC50 assay: inhibition of H2S production by purified hCSE, WSP5 fluorescent probe; assay type: biochemical
T1 construct: His6-TEV (N, cleaved yes); host or cells: E. coli
T1 sequence (P32929 whole entry): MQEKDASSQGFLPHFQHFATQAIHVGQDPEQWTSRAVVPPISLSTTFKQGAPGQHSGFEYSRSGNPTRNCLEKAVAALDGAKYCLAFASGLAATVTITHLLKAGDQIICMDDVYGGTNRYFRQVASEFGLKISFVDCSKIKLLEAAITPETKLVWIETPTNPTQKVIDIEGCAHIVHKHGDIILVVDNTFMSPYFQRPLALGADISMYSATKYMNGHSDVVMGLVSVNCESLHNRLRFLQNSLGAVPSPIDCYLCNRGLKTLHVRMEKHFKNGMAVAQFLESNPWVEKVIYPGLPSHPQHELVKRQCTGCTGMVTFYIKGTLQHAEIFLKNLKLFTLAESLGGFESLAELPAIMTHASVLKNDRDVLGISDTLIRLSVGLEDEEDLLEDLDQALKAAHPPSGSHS
Experimental: (§1) Fluorescence spectrophotometry-based inhibitory activity toward purified bCSE and hCSE was measured in a 96-well nonbinding black plate (Greiner, Kremsmunster, Austria) at 100 μL of the reaction mixture per well. bCSE and hCSE (0.02 μM) were preincubated in a thermoshaker (Biosan, Riga, Latvia) (30 °C, 300 rpm) for 40 min in 50 mM sodium phosphate buffer (pH 8.0), supplemented with 10 μM pyridoxal 5′-phosphate (Sigma-Aldrich, St. Louis, MO, USA), 0.1% of Tween 20 (Sigma-Aldrich, St. Louis, MO, USA), and 1.2 μM Washington State Probe-5 (Cayman Chemical, Ann Arbor, MI, USA) (excitation: 500 nm, emission: 530 nm) at different concentrations of a tested inhibitor. The reaction was initiated by the addition of 100 μM L-cysteine (TCI, Chennai, Tamil Nadu, India) in 50 mM sodium phosphate buffer pH 8.0 to the reaction mixture, and the enzymatic activity was monitored for 12 h using a CLARIOstar Plus instrument (BMG LABTECH GmbH, Ortenberg, Germany). The 100 µM L-cysteine concentration used in the experiments corresponds to the maximal reported intracellular concentration in bacteria. The data were normalized to the positive and negative controls, and IC50 values were obtained by fitting to a four-parameter sigmoidal curve (inhibitor vs. response, variable slope model) in GraphPad Prism 8 software (GraphPad by Dotmatics, Boston, MA, USA). Each experiment was conducted with 2–3 technical replicates. IC50 values were means of at least two independent experiments.
(§2) For the production of S. aureus cystathionine-γ-lyase (bCSE) and of human cystathionine-γ-lyase (hCSE), plasmids pSUMO:saCSE (Addgene # 54336) and pNIC28-Bsa4 (Addgene # 42365) were employed. Cultivation of a competent E. coli cell strain (Thermo Fisher Scientific, Waltham, MA, USA), transformed with a target plasmid, was carried out on a selective solid medium with kanamycin. Bacterial cells harboring the plasmid vector were cultured at 37 °C and 180 rpm until OD600 = 0.65. Then, isopropyl β-D1-thiogalactopyranoside (IPTG) was added to a final concentration of 1 mM. To obtain bCSE, the cells were cultured for 3.5 h at 37 °C; to obtain hCSE, the cells were cultured for 18–20 h at 25 °C. After centrifugation, cells were resuspended in a buffer composed of 50 mM Tris–HCl, at a pH of 8.0, and 300 mM sodium chloride. After that, the cells were lysed by ultrasonication, with a pulse duration of 15 s and an interval between pulses of 15 s. The amplitude of the ultrasonic vibrations was 50% of the maximum. After lysis, samples were centrifuged for 15 min (20,000× g at 4 ℃). The pH of the supernatant obtained after the centrifugation was adjusted to 7.5 by the addition of a 1 M solution of Tris–OH. Then, the test sample was subjected to filtration through a polyethersulfone membrane with a pore diameter of 0.22 μm.

[7] = molecular target: S. aureus cystathionine-γ-lyase (bCSE) (Staphylococcus aureus, UniProt A0A0H3K724); assay: IC50 assay: inhibition of H2S production by purified bCSE, WSP5 fluorescent probe; assay type: biochemical
Sequence of S. aureus cystathionine-γ-lyase (bCSE) (A0A0H3K724 entry or part of it): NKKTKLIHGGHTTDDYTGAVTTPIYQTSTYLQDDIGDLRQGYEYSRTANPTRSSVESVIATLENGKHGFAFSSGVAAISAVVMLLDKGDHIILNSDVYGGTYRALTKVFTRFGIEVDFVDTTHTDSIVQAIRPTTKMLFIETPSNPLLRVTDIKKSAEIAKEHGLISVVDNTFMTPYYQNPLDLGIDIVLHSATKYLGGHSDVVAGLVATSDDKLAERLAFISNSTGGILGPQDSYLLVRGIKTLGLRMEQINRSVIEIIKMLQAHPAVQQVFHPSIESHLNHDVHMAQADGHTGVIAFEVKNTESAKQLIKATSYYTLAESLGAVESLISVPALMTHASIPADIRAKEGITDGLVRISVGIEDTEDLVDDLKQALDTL
Experimental: as §1, §2

[8] = test system: S. aureus ATCC 25923; assay: MIC of antibiotics alone and with potentiators, broth microdilution; conditions: S. aureus ATCC 25923, no potentiator
Experimental: (§3) Overnight (ON) culture of a specific strain was grown in the liquid Luria–Bertani nutrient medium (LB broth, BD Difco) for 18 h at 37 °C, with agitation at 180 rpm using an Innova 44R orbital shaker (Eppendorf, Hamburg, Germany). After a certain period, 50 µL of the ON culture was transferred into 5 mL of the LB medium and grown for 3 h at 37 °C with agitation. Growth in the liquid medium was assessed by means of turbidity of the suspension, measured using a Densi-La-Meter II densitometer (Erba Lachema s.r.o., Brno, Czech Republic). Then, the bacterial suspension was diluted to the concentration 10^6 cells/mL with sterile LB and used as a seed culture [38, 39].
(§4) For the assessment of MICs, 96-well microtiter plates were utilized at 200 µL of a medium per well. Each well was filled with 100 µL of the seed culture. After that, 10 µL of a solution of each tested synthetic compound (potentiators) was added into each experimental well. Finally, 90 µL of twofold serial dilutions of an antibiotic in a sterile LB was added into individual wells.
(§5) As a positive control, we set up wells with 100 µL of the bacterial culture and 100 µL of the sterile LB medium. […] Negative-control wells contained 200 µL of the sterile medium. The plates were incubated in a thermostat for 18–20 h at 37 °C. The bacterial growth was assessed as optical density at 600 nm on a CLARIOstar microplate reader (BMG LABTECH GmbH, Ortenberg, Germany)).

[9] = test system: S. aureus INA00761 (MRSA); assay: as above; conditions: no potentiator
Experimental: as §3, §4, §5

[10] = LogD7.4, miniaturized shake flask method; assay type: physicochemical; conditions: 1-octanol / 100 mM sodium phosphate buffer, pH 7.4, 1-octanol / 100 mM sodium phosphate buffer pH 7.4; read-out: Measured logD7.4
Experimental: Coefficients of distribution between 1-octanol and 100 mM sodium phosphate buffer (pH 7.4) were determined by the miniaturized shake flask method. Namely, 5 μL of a 10 mM compound’s solution in DMSO was dissolved in 245 μL of 1-octanol saturated with phosphate buffer. Next, 500 μL of phosphate buffer saturated with 1-octanol was added, followed by mixing for 3 h. […] After that, 50 μL of the octanol phase (top layer) was aspirated and diluted with 500 μL of 1-octanol saturated with phosphate buffer. Then, the remaining octanol phase was removed; 50 μL of the buffer layer was aspirated and diluted with 500 μL of phosphate buffer saturated with 1-octanol. Both the octanol and phosphate buffer samples were analyzed by LC–MS/MS. The distribution coefficient was determined according to the following equation: logD7.4 = log10 (peak area for octanol sample/peak area for buffer sample). […] All compounds were tested in triplicate.

O=c1ccc2ccc(O)cc2o1 [Umbelliferone]
CLint ([1]; rat liver microsomes, cofactor NADPH, 1 µM): 8.8 µL/min/mg | microsomal CLint at 1 µM ([1]; rat liver microsomes, cofactor NADPH): 8.81 ± 1 µL/min/mg | microsomal CLint at 1 µM ([1]; rat liver microsomes, cofactor UDPGA): 180 ± 0.7 µL/min/mg | half-life at 1 µM ([1]; cofactor NADPH): 2.64 ± 0.301 h | half-life at 1 µM ([1]; cofactor UDPGA): 0.1283 ± 0.0005 h

COC(=O)C1=C(C)NC(C)=C(C(=O)OCCN(C)Cc2ccccc2)C1c1cccc([N+](=O)[O-])c1 (centres unmarked) [Nicardipine]
solubility at 2 h [2]: 5.16 ± 0.23 µM (≈ 2.47 µg/mL) | Solubility ([2]; 2 h, pH 7.4): 5.2 µM (≈ 2.49 µg/mL)

CC(C)NCC(O)COc1cccc2ccccc12 (centres unmarked) [Propranolol, reference compound]
Fraction bound fb ([3]; 6 h, 5 μM, pH 7.4): 85.8% | fraction unbound at 6 h, 5 μM ([3]; pH 7.4, Fraction bound fb): 0.142 | efflux ratio at 2 h, 10 μM ([4]; Caco-2, Papp (BA) / Papp (AB)): 1.04 | Papp A→B at 2 h, 10 μM ([4]; Caco-2, 10 μM, 2 h, pH 7.4): 30.2 ± 2.9 ×10⁻⁶ cm/s | Papp B→A at 2 h, 10 μM ([4]; Caco-2, 10 μM, 2 h, pH 7.4): 31.6 ± 1.1 ×10⁻⁶ cm/s

O=C([O-])c1cn(Cc2cccc3ccccc23)c2ccccc12.[Na+] [Compound 1c]
CC50 [5]: 308 ± 75.5 µM | activity toward hCSE (in words) [6]: did not show noticeable activity | IC50 ([6]; read-out: IC50 biochemical assay hCSE; purified hCSE 0.02 μM, 100 μM L-cysteine, WSP5 probe, mean ± SD): > 500 µM | activity toward bCSE (in words) [7]: did not show noticeable activity

NC[C@H]1O[C@H](O[C@H]2[C@H](O)[C@@H](O[C@H]3O[C@H](CO)[C@@H](O)[C@H](N)[C@H]3O)[C@H](N)C[C@@H]2N)[C@H](O)[C@@H](O)[C@@H]1O [km, kanamycin]
MIC of antibiotic alone [8]: 12.5 µg/mL | MIC of antibiotic alone [9]: res | MIC of antibiotic alone ([9]; listed as kanamycin): resistant

O=C(O)c1ccc2ccn(Cc3cccc4ccccc34)c2c1 [Compound 4a]
CC50 [5]: 392 ± 21.8 µM | IC50 ([6]; purified hCSE 0.02 μM, 100 μM L-cysteine, WSP5 probe, mean ± SD; read-out: IC50 biochemical assay hCSE): > 500 µM | IC50 ([7]; IC50 (uM), bCSE enzymatic IC50, rounded, repeated in Table S13): 138 µM | IC50 ([7]; IC50 (uM), bCSE enzymatic IC50, rounded, repeated in Table S14): 138 µM | IC50 ([7]; IC50 (uM), bCSE enzymatic IC50, rounded, repeated in Table S15): 138 µM | IC50 ([7]; IC50 biochemical assay bCSE, purified bCSE 0.02 μM, 100 μM L-cysteine, WSP5 probe, mean ± SD): 138 ± 9 µM

O=C(O)Cc1ccccc1Nc1c(Cl)cccc1Cl [Diclofenac sodium]
solubility at 2 h [2]: > 100 µM

CC1(C)S[C@@H]2[C@H](NC(=O)[C@H](N)c3ccccc3)C(=O)N2[C@H]1C(=O)O [amp, ampicillin]
MIC of antibiotic alone [8]: 0.3 µg/mL | MIC of antibiotic alone [9]: res | MIC of antibiotic alone ([9]; listed as ampicillin): resistant

CC(=O)Nc1ccc(O)cc1 [Paracetamol, reference compound]
logD [10]: 0.29 ± 0.02

CCn1cc(C(=O)O)c(=O)c2cc(F)c(N3CCNCC3)cc21 [nor, norfloxacin]
MIC of antibiotic alone [8]: 2.5 µg/mL | MIC of antibiotic alone [9]: 10 µg/mL
